In patent US8912179B2, “Heterocyclyl compounds as histamine H3 receptor ligands” (Suven Life Sciences Limited, priority 2010, dated 2014):

Experiments:
[1] = biological target: Histamine H3 receptor (UniProt Q9Y5N1); test: Binding assay for human or rat histamine H3 receptor ([3H] R-α-methylhistamine); conditions: [3H] R-α-methylhistamine 3.0 nM; rat brain frontal cortex or recombinant human receptor in CHO cells (not specified which)
Protocol: Compounds can be evaluated according to the following procedures.
• Receptor source: Rat brain frontal cortex or recombinant human cDNA expressed in CHO cells • Radioligand: [^3H] R-α-methylhistamine • Final ligand concentration—[3.0 nM] • Non-specific determinant: R-α-methylhistamine (100 uM) • Reference compound: R-α-methylhistamine • Positive control: R-α-methylhistamine Incubation Conditions:
Increasing concentrations of test compounds or standard were incubated with membrane receptors and radioligand in 5 mM MgCl2 and 50 mM TRIS-HCl (pH 7.4) for 60 minutes at room temperature. The reaction was terminated by rapid vacuum filtration onto the glass fiber filters. Radioactivity trapped onto the filters was determined and compared to the control values in order to ascertain any interactions of the test compound(s) with either cloned human or rat receptor binding site.

[2] = Rodent pharmacokinetic study; format: in vivo, Male Wistar rats; conditions: whole blood, Wistar male rat; for AUC(0-t) / Cmax / Tmax / half-life: water, blood; for bioavailability: per oral 3 mg/kg vs intravenous 1 mg/kg
Protocol: Male Wistar rats (230-280 grams) obtained from NIN (National Institute of Nutrition, Hyderabad, India) were used as an experimental animal. Three animals were housed in each cage. Animals were kept fasted over night and maintained on a 12 hours light/dark cycle. Three rats were dosed New chemical entity (NCE) orally (3 or 10 mg/kg) and intravenously (1 or 5 mg/kg) on day 0 and day 2.
At each time point blood was collected by jugular vein. Blood was stored at 2-8° C. until analysis. The concentrations of the NCE compound in blood were determined using LC-MS/MS method. Schedule time points: Pre dose 0.08, 0.25, 0.5, 1, 2, 4, 6, 8 and 24 hours after dosing (n=3). The NCE compounds were quantified in blood by partially validated LC-MS/MS method using acetonitrile precipitation technique. NCE compounds were quantified in the calibration range of 1-2000 ng/mL in blood. Study samples were analyzed using calibration samples in the batch and quality control samples spread across the batch.
Pharmacokinetic parameters were calculated by non-compartmental model using software WinNonlin version 5.0.1.

[3] = Rodent brain penetration study; format: in vivo, Male Wister rats; conditions: brain / whole blood; Wistar male rat; one value per compound, table lists intravenous 1 mg/kg and per oral 3 mg/kg, water; read-out: Brain Penetration Ratio (Cb/Cp)
Protocol: Male Wister rats (230-280 grams) obtained from NIN (National Institute of Nutrition, Hyderabad, India) was used as experimental animals. Three animals were housed in each cage. Animals were given water and food ad libitum throughout the experiment, and maintained on a 12 hours light/dark cycle.
New chemical entity (NCE) was dissolved in suitable vehicle and administered orally (3 or 10 mg/kg). Around Tmax (i.e, 0.5 hour, 1.0 hour and 2.0 hours) animals were sacrificed. Blood and brain tissue were collected and brain was homogenized to yield 20% w/v. Blood was stored at 2-8° C. and brain homogenate was frozen at −20° C. until analysis. The concentrations of NCE in blood and brain were quantified using LC-MS/MS method.
The NCE was quantified in blood and brain homogenate by partially validated LC-MS/MS method using acetonitrile precipitation technique. NCE compounds were quantified in the calibration range of 1-500 ng/mL in blood and brain homogenate. Study samples were analyzed using calibration samples in the batch and quality control samples spread across the batch. Extents of brain-blood ratio were calculated (Cb/Cp).

[4] = tested on: Male Wister rats; test: Object recognition task model; format: in vivo, rat; conditions: for Exploration time mean ± S.E.M, Familiar object / Exploration time mean ± S.E.M, Novel object: choice trial T2, 24 hours after T1
Protocol: The cognition enhancing properties of compounds of this invention were estimated by using this model.
Male Wister rats (230-280 grams) obtained from N. I. N. (National Institute of Nutrition, Hyderabad, India) was used as experimental animals. Four animals were housed in each cage. Animals were kept on 20% food deprivation before one day and given water ad libitum throughout the experiment and maintained on a 12 hours light/dark cycle. Also the rats were habituated to individual arenas for 1 hour in the absence of any objects.
One group of 12 rats received vehicle (1 mL/Kg) orally and another set of animals received compound of the formula (I) either orally or i.p., before one hour of the familiar (T1) and choice trial (T2).
The experiment was carried out in a 50×50×50 cm open field made up of acrylic. In the familiarization phase, (T1), the rats were placed individually in the open field for 3 minutes, in which two identical objects (plastic bottles, 12.5 cm height×5.5 cm diameter) covered in yellow masking tape alone (a1 and a2) were positioned in two adjacent corners, 10 cms from the walls. After 24 hours of the (T1) trial for long-term memory test, the same rats were placed in the same arena as they were placed in T1 trial. Choice phase (T2) rats were allowed to explore the open field for 3 minutes in presence of one familiar object (a3) and one novel object (b) (Amber color glass bottle, 12 cm high and 5 cm in diameter). Familiar objects presented similar textures, colors and sizes. During the T1 and T2 trial, explorations of each object (defined as sniffing, licking, chewing or having moving vibrissae whilst directing the nose towards the object at a distance of less than 1 cm) were recorded separately by stopwatch. Sitting on an object was not regarded as exploratory activity, however, it was rarely observed. • T1 is the total time spent exploring the familiar objects (a1+a2). • T2 is the total time spent exploring the familiar object and novel object (a3+b).
The object recognition test was performed as described by Ennaceur, A., Delacour, J., 1988, A new one-trial test for neurobiological studies of memory in rats—Behavioural data, Behav. Brain Res., 31, 47-59.

[5] = tested on: rats; test: Morris water maze, reversal of scopolamine induced amnesia; format: in vivo, rat; conditions: p.o., dose giving reversal
Protocol: The cognition-enhancing properties of compounds of this invention were estimated by using this model.
The water maze apparatus consisted of a circular pool (1.8 m diameter, 0.6 m high) constructed in black Perspex (TSE systems, Germany) filled with water (24±2° C.) and positioned underneath a wide-angled video camera to track animal. The 10 cm^2 perspex platform, lying 1 cm below the water surface, was placed in the centre of one of the four imaginary quadrants, which remained constant for all rats. The black Perspex used in the construction of the maze and platform offered no intramaze cues to guide escape behavior. By contrast, the training room offered several strong extramaze visual cues to aid the formation of the spatial map necessary for escape learning. An automated tracking system, [Videomot 2 (5.51), TSE systems, Germany] was employed. This program analyzes video images acquired via a digital camera and an image acquisition boards that determined path length, swim speed and the number of entries and duration of swim time spent in each quadrant of the water maze.

[6] = tested on: rats; test: Inhibition of food intake; format: in vivo, rat; conditions: p.o., rats fasted 18 hours
Protocol: The anti-obesity properties of compounds of this invention were estimated using this model
The experiment consisted of 6 days. The rats were adapted to the 18 hours fasting and 6 hours feeding pattern. The animals were housed in a group of three in the cages provided with the fasting grills and was fasted for 18 hours. After 18 hours fasting the rats were separated and placed individually in the cage. Weighed amount of feed was provided to rats for 6 hours and the feed intake at 1 hour, 2 hours, 4 hours and 6 hours was measured
Again the rats were regrouped and fasted for 18 hours. The above procedure was followed for 5 days. The average cumulative food intake by the rats on the last 3 days was calculated. Animals were randomized on the basis of their previous three days food intake. On the day of experiment the rats were orally treated test compounds or vehicle. After 60 minutes, the feed was provided to the rats and the food intake at 1 hour, 2 hours, 4 hours and 6 hours was measured. The food intake by the rats treated with test compound was compared with the vehicle treated group by using Unpaired Student's t test.

SMILES	Ki [1]	AUC(0-t) ([2]; intravenous, 1 mg/kg)	Cmax ([2]; intravenous, 1 mg/kg)	Tmax ([2]; intravenous, 1 mg/kg)	half-life ([2]; intravenous, 1 mg/kg)	bioavailability [2]	AUC(0-t) ([2]; per oral, 3 mg/kg)	Cmax ([2]; per oral, 3 mg/kg)	Tmax ([2]; per oral, 3 mg/kg)	half-life ([2]; per oral, 3 mg/kg)	Kp [3]	Inference ([4]; 3 mg/kg p.o.)	Exploration time mean ± S.E.M, Familiar object ([4]; 3 mg/kg p.o.)	Exploration time mean ± S.E.M, Novel object ([4]; 3 mg/kg p.o.)	Reversal of Scopolamine Induced amnesia [5]	other results
CCC(=O)N1CCc2nc(OC3CCN(C4CCC4)CC3)sc2C1.O=C(O)C(O)C(O)C(=O)O [Example 1, 1-[2-(1-Cyclobutyl-piperidin-4-yloxy)-6,7-dihydro-4H-thiazolo[5,4-c]pyridin-5-yl]-propan-1-one tartrate]	3.83 nM	356 ± 61 ng·h/mL	436 ± 118 ng/mL	4.8 min	58.8 ± 7.8 min	49 ± 5%	524 ± 51 ng·h/mL	329 ± 23 ng/mL	25.2 ± 8.4 min	57 ± 4.2 min	1.97 ± 0.24	Active	7.8 ± 1.80 s	23.95 ± 3.15 s	≦10 mg/kg, p.o.	–
O=C(C1CC1)N1CCc2nc(OC3CCN(C4CCC4)CC3)sc2C1.O=C(O)C(O)C(O)C(=O)O [Example 4, [2-(1-Cyclobutyl-piperidin-4-yloxy)-6,7-dihydro-4H-thiazolo[5,4-c]pyridin-5-yl]-cyclopropyl-methanone tartrate]	7.2 nM	348 ± 7 ng·h/mL	320 ± 62 ng/mL	4.8 min	75 ± 6.6 min	39 ± 8%	407 ± 89 ng·h/mL	199 ± 48 ng/mL	40.2 ± 17.4 min	100 ± 12.6 min	2.17 ± 0.17	–	–	–	≦10 mg/kg, p.o.	Inference ([4]; 10 mg/kg p.o.): Active; Exploration time mean ± S.E.M, Familiar object ([4]; 10 mg/kg p.o.): 7.8 ± 1.36 s; Exploration time mean ± S.E.M, Novel object ([4]; 10 mg/kg p.o.): 20.32 ± 2.22 s; Inhibition of food intake [6]: 20 mg/kg, p.o.
O=C(C1CCC1)N1CCc2nc(OC3CCN(C4CCC4)CC3)sc2C1.O=C(O)C(O)C(O)C(=O)O [Example 5, Cyclobutyl-[2-(1-cyclobutyl-piperidin-4-yloxy)-6,7-dihydro-4H-thiazolo[5,4-c]pyridin-5-yl]-methanone tartrate]	3.3 nM	155 ± 38 ng·h/mL	287 ± 58 ng/mL	4.8 min	25.8 ± 6 min	25 ± 1%	117 ± 34 ng·h/mL	101 ± 37 ng/mL	25.2 ± 8.4 min	34.2 ± 6 min	3.08 ± 0.45	Active	7.15 ± 0.91 s	11.44 ± 1.58 s	≦3 mg/kg, p.o.	–
CC(C)C(=O)N1CCc2nc(OC3CCN(C4CCC4)CC3)sc2C1.O=C(O)C(O)C(O)C(=O)O [Example 22, 1-[2-(1-Cyclobutyl-piperidin-4-yloxy)-6,7-dihydro-4H-thiazolo[5,4-c]pyridin-5-yl]-2-methyl-propan-1-one tartrate]	9.5 nM	110 ± 15 ng·h/mL	205 ± 47 ng/mL	4.8 min	30 ± 3 min	65 ± 24%	206 ± 56 ng·h/mL	189 ± 56 ng/mL	25.2 ± 8.4 min	32.4 ± 6.6 min	2.1 ± 0.13	–	–	–	–	–
O=C(C1CCOCC1)N1CCc2nc(OC3CCN(C4CCC4)CC3)sc2C1 [Example 28, [2-(1-Cyclobutyl-piperidin-4-yloxy)-6,7-dihydro-4H-thiazolo[5,4-c]pyridin-5-yl]-(tetrahydro-pyran-4-yl)-methanone]	39 nM	282 ± 23 ng·h/mL	370 ± 25 ng/mL	4.8 min	40.2 ± 3.6 min	82 ± 38%	701 ± 328 ng·h/mL	286 ± 40 ng/mL	49.8 ± 17.4 min	57 ± 16.8 min	–	–	–	–	≧10 mg/kg, p.o.	Inference ([4]; 0.3 mg/kg p.o.): Active; Exploration time mean ± S.E.M, Familiar object ([4]; 0.3 mg/kg p.o.): 6.12 ± 1.22 s; Exploration time mean ± S.E.M, Novel object ([4]; 0.3 mg/kg p.o.): 11.44 ± 1.69 s
